Molecular target: T1, nhTMEM16 (Fusarium vanettenii, UniProt C7Z7K1)
T1 construct: gene NECHADRAFT_66456; full open reading frame, N-terminal SBP-Myc-3C tag kept for scrambling assay; expressed in S. cerevisiae FGY217, purified in DDM, reconstituted into liposomes; homodimer
T1 sequence (C7Z7K1 1-735): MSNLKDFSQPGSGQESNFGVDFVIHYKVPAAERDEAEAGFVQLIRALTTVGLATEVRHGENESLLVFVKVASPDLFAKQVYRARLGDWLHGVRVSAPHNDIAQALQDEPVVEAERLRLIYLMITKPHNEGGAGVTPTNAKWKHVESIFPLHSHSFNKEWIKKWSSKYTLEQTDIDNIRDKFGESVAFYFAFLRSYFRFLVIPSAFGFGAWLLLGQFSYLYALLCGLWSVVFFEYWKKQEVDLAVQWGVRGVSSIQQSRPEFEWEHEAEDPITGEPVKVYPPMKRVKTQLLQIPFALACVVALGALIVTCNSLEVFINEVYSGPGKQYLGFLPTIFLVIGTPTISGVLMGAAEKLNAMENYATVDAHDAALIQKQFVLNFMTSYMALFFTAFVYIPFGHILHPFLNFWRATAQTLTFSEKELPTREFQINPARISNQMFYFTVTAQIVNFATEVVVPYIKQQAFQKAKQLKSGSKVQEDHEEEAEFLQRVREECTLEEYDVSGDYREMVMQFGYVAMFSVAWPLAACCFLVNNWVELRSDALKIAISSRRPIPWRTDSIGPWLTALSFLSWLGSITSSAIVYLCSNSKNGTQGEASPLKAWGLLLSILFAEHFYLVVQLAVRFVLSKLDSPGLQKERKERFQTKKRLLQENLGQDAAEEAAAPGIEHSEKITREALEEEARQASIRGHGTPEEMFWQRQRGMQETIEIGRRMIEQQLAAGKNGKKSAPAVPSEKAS
Test: proteoliposome scrambling assay, dithionite quenching of NBD fluorescence
Type: biochemical
Details: Ca2+-stimulated with basal activity without Ca2+; E. coli polar lipids/egg PC 3:1, pH 7.5, 300 mM KCl; labelled compound; lipid transport (flip-flop)

## CCCCCCCC/C=C\CCCCCCCC(=O)OC[C@H](COP(=O)(O)OCCN)OC(=O)CCCCCNc1ccc([N+](=O)[O-])c2nonc12 [18:1-06:0 NBD-PE]
  proteoliposome scrambling assay, dithionite quenching of NBD fluorescence: Traces depict sections of the fluorescence decrease of tail-labeled NBD-PE lipids after addition of dithionite

From paper PMC6414200, “Stepwise activation mechanism of the scramblase nhTMEM16 revealed by cryo-EM” (eLife, 2019)
